Square brackets hold non-standard residues; d marks the D form. Ends that are not written are not given here. Peptide text beside a SMILES is read from it.
Key:
myotoxin II [1] = target: T1, myotoxin II (Bothrops asper, UniProt P24605); type: binding
[2] = Fluorescence polarization test for self-assembly or aggregation; type: physicochemical; settings: absence of Myotoxin-II
myotoxin II [3] = target: T1, myotoxin II

T1 sequence (P24605 17-137 limits assumed): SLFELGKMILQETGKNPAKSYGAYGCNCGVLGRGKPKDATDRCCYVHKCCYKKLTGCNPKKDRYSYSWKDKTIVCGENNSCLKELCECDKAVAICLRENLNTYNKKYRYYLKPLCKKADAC

Molecule | ELISA signal at different dilutions, myotoxin II coated versus uncoated wells (myotoxin II [1]) | ELISA signal, myotoxin II coated wells versus uncoated control (myotoxin II [1]) | Signal intensity and signal to noise ratio in cross reactivity ELISA (myotoxin II [1]) | Self-assembling or aggregating ability (artificial increase of FP signal of TAMRA-probe) [2] | Cytotoxicity of Myotoxin II in presence of peptide (LDH release) (myotoxin II [3])
NGYWSSQQYMQQAPMPWRIP [Clone 4.10] | highest signals and also the highest signal to noise ratio in all of the dilutions | greatest difference between toxin coated wells and control | highest signal intensity and the best signal to noise ratio | – | –
DYDRIPDIPMLGGGG [Clone 1.4] | low difference for the dilutions of 1/100 and 1/1000 | greatest difference between toxin coated wells and control | – | – | –
QSVTMGPGLITHSPIHTQSK [Clone 1.2] | low difference for the dilutions of 1/100 and 1/1000 | greatest difference between toxin coated wells and control | – | – | –
Y11D-Y (DHWVWGWNYQ[dY]QPQEWHTES) [Clone Y11D-Y] | – | – | – | did not artificially increase the FP signal | –
SWEPYANPTRYKFHDW [Clone 1.8] | low difference for the dilutions of 1/100 and 1/1000 | greatest difference between toxin coated wells and control | – | – | –
CC(C)[C@H](NC(=O)[C@H](Cc1c[nH]c2ccccc12)NC(=O)[C@H](Cc1c[nH]cn1)NC(=O)[C@@H](N)CC(=O)O)C(=O)N[C@@H](Cc1c[nH]c2ccccc12)C(=O)NCC(=O)N[C@@H](Cc1c[nH]c2ccccc12)C(=O)N[C@@H](CC(N)=O)C(=O)N[C@@H](Cc1ccc(O)cc1)C(=O)N[C@@H](CCC(N)=O)C(=O)N[C@@H](Cc1ccc(O)cc1)C(=O)N[C@@H](CCC(N)=O)C(=O)N1CCC[C@H]1C(=O)N[C@@H](CCC(N)=O)C(=O)N[C@@H](CCC(=O)O)C(=O)N[C@@H](Cc1c[nH]c2ccccc12)C(=O)N[C@@H](Cc1c[nH]cn1)C(=O)N[C@H](C(=O)N[C@@H](CCC(=O)O)C(=O)N[C@@H](CO)C(=O)O)[C@@H](C)O [Clone 1.9] (H-DHWVWGWNYQYQPQEWHTES-OH) | – | – | – | – | 4%
VNRMLELKIMDYGGG [Clone 1.1] | low difference for the dilutions of 1/100 and 1/1000 | greatest difference between toxin coated wells and control | – | – | –

Reference: patent US11352393B2, “Myotoxin-neutralizing peptides” (priority 2018, dated 2022)
